Test results: the supplement of paper PMC5908809

What was measured:
[1] = system: normal NK cells expanded with K562-aAPC; experiment: percent inhibition of viability; higher = more inhibition; settings: 72 h, IL-2 2.5 ng/mL
Protocol: (§1)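 Drug sensitivity and resistance testing on K562-aAPC-expanded normal NK cells: 5 concentrations (10-fold steps over a 10,000-fold range), 72 h at 37 °C, viability by CellTiter-Glo normalised to DMSO and benzethonium chloride controls; DSS from the fitted curve.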

DERL-7 (IL-2 2.5 ng/mL) [2] = experiment: as above; settings: 72 h
IMC-1 (IL-2 20 ng/mL) [3] = experiment: as above; settings: 72 h
KAI3 (IL-2 2.5 ng/mL) [4] = experiment: as above; settings: 72 h
KHYG-1 (IL-2 2.5 ng/mL) [5] = experiment: as above; settings: 72 h
NK-92 (IL-2 2.5 ng/mL) [6] = experiment: as above; settings: 72 h
NK-YS (IL-2 2.5 ng/mL) [7] = experiment: as above; settings: 72 h
NKL (IL-2 2.5 ng/mL) [8] = experiment: as above; settings: 72 h
SNK-6 (IL-2 2.5 ng/mL) [9] = experiment: as above; settings: 72 h
YT (IL-2 2.5 ng/mL) [10] = experiment: as above; settings: 72 h
[11] = system: normal primary NK cells, pool 1 (3 donors) (IL-2 2.5 ng/mL); experiment: as above; settings: 72 h
[12] = system: normal primary NK cells, pool 1 (3 donors), resting (IL-2 0 ng/mL); experiment: as above; settings: 72 h
[13] = system: normal primary NK cells, pool 2 (3 donors) (IL-2 2.5 ng/mL); experiment: as above; settings: 72 h
[14] = system: normal primary NK cells, pool 3 (3 donors) (IL-2 2.5 ng/mL); experiment: as above; settings: 72 h
[15] = system: normal NK cells expanded with K562-aAPC; experiment: drug sensitivity score (DSS) (DSS units); higher = more sensitive; extreme values may be limits of the assay; settings: 72 h; IL-2 2.5 ng/mL
Protocol: as §1

DERL-7 (IL-2 2.5 ng/mL) [16] = experiment: as above; settings: 72 h
IMC-1 (IL-2 20 ng/mL) [17] = experiment: as above; settings: 72 h
KAI3 (IL-2 2.5 ng/mL) [18] = experiment: as above; settings: 72 h
KHYG-1 (IL-2 2.5 ng/mL) [19] = experiment: as above; settings: 72 h
NK-92 (IL-2 2.5 ng/mL) [20] = experiment: as above; settings: 72 h
NK-YS (IL-2 2.5 ng/mL) [21] = experiment: as above; settings: 72 h
NKL (IL-2 2.5 ng/mL) [22] = experiment: as above; settings: 72 h
SNK-6 (IL-2 2.5 ng/mL) [23] = experiment: as above; settings: 72 h
YT (IL-2 2.5 ng/mL) [24] = experiment: as above; settings: 72 h
[25] = system: normal primary NK cells, pool 1 (3 donors) (IL-2 2.5 ng/mL); experiment: as above; settings: 72 h
[26] = system: normal primary NK cells, pool 1 (3 donors), resting (IL-2 0 ng/mL); experiment: as above; settings: 72 h
[27] = system: normal primary NK cells, pool 2 (3 donors) (IL-2 2.5 ng/mL); experiment: as above; settings: 72 h
[28] = system: normal primary NK cells, pool 3 (3 donors) (IL-2 2.5 ng/mL); experiment: as above; settings: 72 h

CNC(=O)c1cc(Oc2ccc(NC(=O)Nc3ccc(Cl)c(C(F)(F)F)c3)c(F)c2)ccn1 [Regorafenib] (max concentration tested 10000 nM)
percent inhibition of viability [%]
Settings | 1 nM | 10 nM | 100 nM | 1000 nM | 10000 nM
DERL-7 (IL-2 2.5 ng/mL) [2] | 2.39 | 2.44 | -0.06 | 27.7 | 70.5
IMC-1 (IL-2 20 ng/mL) [3] | -4.09 | -5.72 | 3.85 | 6.77 | 39.6
KAI3 (IL-2 2.5 ng/mL) [4] | -0.04 | -3.7 | -6.12 | -2.83 | 85.1
KHYG-1 (IL-2 2.5 ng/mL) [5] | -1.86 | -1.02 | 1.17 | 11.2 | 87.3
NK-92 (IL-2 2.5 ng/mL) [6] | 0.49 | 12.1 | 12 | 37.9 | 85.7
NK-YS (IL-2 2.5 ng/mL) [7] | -1 | -1.21 | 3.83 | 15.4 | 67
NKL (IL-2 2.5 ng/mL) [8] | -7.68 | -18.9 | -10.6 | 17.4 | 70.8
SNK-6 (IL-2 2.5 ng/mL) [9] | 9.61 | 17.5 | 36.1 | 38.7 | 63.7
YT (IL-2 2.5 ng/mL) [10] | 2 | 0.08 | 3.65 | 21.9 | 100
[1] | 3.1 | -1.28 | -0.64 | -2.22 | 19.1
[11] | -13.1 | 1.52 | -11 | 1.66 | 79.7
[12] | 6.64 | 8.24 | -7.13 | 12.5 | 79.3
[13] | -10.1 | -16.9 | -7.59 | 12.1 | 61
[14] | -11.7 | -13.3 | -6.26 | 6.56 | 48.1

Settings | drug sensitivity score
DERL-7 (IL-2 2.5 ng/mL) [16] | 7.66
IMC-1 (IL-2 20 ng/mL) [17] | 3.09
KAI3 (IL-2 2.5 ng/mL) [18] | 4.49
KHYG-1 (IL-2 2.5 ng/mL) [19] | 6.71
NK-92 (IL-2 2.5 ng/mL) [20] | 9.31
NK-YS (IL-2 2.5 ng/mL) [21] | 6.12
NKL (IL-2 2.5 ng/mL) [22] | 6.61
SNK-6 (IL-2 2.5 ng/mL) [23] | 13.9
YT (IL-2 2.5 ng/mL) [24] | 8.99
[15] | 0.41
[25] | 4.63
[26] | 6.48
[27] | 5.3
[28] | 3.62

CO[C@H]1C[C@@H]2CC[C@@H](C)[C@@](O)(O2)C(=O)C(=O)N2CCCC[C@H]2C(=O)O[C@H]([C@H](C)C[C@@H]2CC[C@@H](OP(C)(C)=O)[C@H](OC)C2)CC(=O)[C@H](C)/C=C(\C)[C@@H](O)[C@@H](OC)C(=O)[C@H](C)C[C@H](C)/C=C/C=C/C=C/1C [Ridaforolimus] (max concentration tested 100 nM)
percent inhibition of viability [%]
Settings | 0.01 nM | 0.1 nM | 1 nM | 10 nM | 100 nM
DERL-7 (IL-2 2.5 ng/mL) [2] | -15.4 | 2.83 | 28.9 | 51.2 | 57.3
IMC-1 (IL-2 20 ng/mL) [3] | -3.33 | -2.56 | -12.9 | -45.3 | -38.3
KAI3 (IL-2 2.5 ng/mL) [4] | -4.12 | -7.54 | 27.9 | 44 | 48.8
KHYG-1 (IL-2 2.5 ng/mL) [5] | -5.83 | -9.85 | 0.66 | 26.3 | 51.1
NK-92 (IL-2 2.5 ng/mL) [6] | -28.6 | -5.36 | -5.98 | 12.4 | 39
NK-YS (IL-2 2.5 ng/mL) [7] | -0.81 | 5.33 | 44.5 | 49.8 | 54.8
NKL (IL-2 2.5 ng/mL) [8] | -1.33 | 21.2 | 50.1 | 55 | 58.3
SNK-6 (IL-2 2.5 ng/mL) [9] | -5.16 | -2.57 | 46.2 | 46 | 55
YT (IL-2 2.5 ng/mL) [10] | -4.71 | -6.15 | 16.4 | 48.4 | 45.6
[1] | -10 | -8.61 | -0.94 | 10.6 | 16.8
[11] | -8.79 | 8.41 | 13.3 | 20.3 | 11.8
[12] | -5.23 | 14.6 | 24.1 | 30.7 | 28.2
[13] | -12.7 | 6.23 | 9.36 | 16.1 | 19.1
[14] | -5.53 | 6.52 | 5.98 | 8.12 | 11

Settings | drug sensitivity score
DERL-7 (IL-2 2.5 ng/mL) [16] | 13.3
IMC-1 (IL-2 20 ng/mL) [17] | 0
KAI3 (IL-2 2.5 ng/mL) [18] | 12.4
KHYG-1 (IL-2 2.5 ng/mL) [19] | 5.97
NK-92 (IL-2 2.5 ng/mL) [20] | 3.73
NK-YS (IL-2 2.5 ng/mL) [21] | 16
NKL (IL-2 2.5 ng/mL) [22] | 19.2
SNK-6 (IL-2 2.5 ng/mL) [23] | 15.6
YT (IL-2 2.5 ng/mL) [24] | 11.2
[15] | 1.24
[25] | 3.96
[26] | 9.48
[27] | 2.58
[28] | 0.06
